Data: patent publication US7205382B2, “Peptides, the production and use thereof for binding immunoglobulins” (Fresenius Medical Care Affina GmbH, priority 2000, dated 2007)
Bridge positions count the residues as written; N and C are the ends. Square brackets hold non-standard residues; d marks the D form. Ends that are not written are not given here. cellulose = not defined here; βAla = NCCC(=O)O

What was measured:
Format in all cases: binding
Parameters in all cases: key: No binding of immunoglobulin for the defined peptide variant, detection negative: 0; Binding of immunoglobulin for the defined peptide variant, detection positive: +
serum albumin = assay: Cellulose-immobilized 13-mer peptide variants incubated with serum albumin (negative control), anti-human IgG-AP detection; conditions: blocking buffer without addition, 3 h room temperature
Summary of the method: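 Read-out was colorimetric NBT/BCIP staining (developing buffer pH 9.5) after alkaline phosphatase-conjugated anti-human IgG at 1.2 μg/ml. Before this, the immobilized peptides had been incubated 3 h at room temperature with 1 μg/ml IgG-Fc, 1:10,000 diluted serum, or albumin-containing blocking buffer without addition.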

[1] = system: immunoglobulins in human plasma; assay: Cellulose-immobilized 13-mer peptide variants incubated with human plasma, anti-human IgG-AP detection; conditions: human plasma as sample, diluted 1:10,000 in blocking buffer, 3 h room temperature
Summary of the method: (§1)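 SPOT-type 13-mer peptides on cellulose with a (βA)(βA) spacer, blocked in 5% saccharose/4% BSA in T-TBS pH 8.0. Incubated 3 h at RT with human IgG-Fc (1 μg/ml) or human serum/plasma (1:10,000), or with blocking buffer alone as the albumin specificity control. Bound IgG detected with AP-anti-human IgG (1.2 μg/ml) and NBT/BCIP colorimetric development at pH 9.5.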

human IgG-Fc = assay: Cellulose-immobilized 13-mer peptide variants incubated with human IgG-Fc, anti-human IgG-AP detection; conditions: IgG-Fc 1 μg/ml in blocking buffer, 3 h room temperature
Summary of the method: as §1

05Y: cellulose-bound 13-mer variant DCAWYLGELVWCT-(βA)(βA) (DCAWYLGELVWCT[βAla][βAla]; disulfide 2-12 (inferred); not fully specified (N-terminus); printed as DCAWYLGELVWCT-(βA)(βA); also: cellulose-bound)
Result for incubation with serum albumin (immunoglobulin binding detection) (serum albumin): 0 | Result for incubation with human plasma (immunoglobulin binding detection) [1]: 0 | Result for incubation with human IgG-Fc (immunoglobulin binding detection) (human IgG-Fc): 0

01W: cellulose-bound 13-mer variant WCAWHLGELVWCT-(βA)(βA) (WCAWHLGELVWCT-{βAla-βAla-cellulose}; disulfide 2-12 (inferred); reading uncertain; also: printed as WCAWHLGELVWCT-(βA)(βA))
Result for incubation with serum albumin (immunoglobulin binding detection) (serum albumin): 0 | Result for incubation with human plasma (immunoglobulin binding detection) [1]: 0 | Result for incubation with human IgG-Fc (immunoglobulin binding detection) (human IgG-Fc): 0

04N: cellulose-bound 13-mer variant DCANHLGELVWCT-(βA)(βA) (DCANHLGELVWCT[βAla][βAla]; disulfide 2-12 (inferred); also: cellulose-bound)
Result for incubation with serum albumin (immunoglobulin binding detection) (serum albumin): 0 | Result for incubation with human plasma (immunoglobulin binding detection) [1]: 0 | Result for incubation with human IgG-Fc (immunoglobulin binding detection) (human IgG-Fc): +

08R: cellulose-bound 13-mer variant DCAWHLGRLVWCT-(βA)(βA) (DCAWHLGRLVWCT-{βAla-βAla-cellulose}; disulfide 2-12 (inferred); reading uncertain; also: printed as DCAWHLGRLVWCT-(βA)(βA))
Result for incubation with serum albumin (immunoglobulin binding detection) (serum albumin): 0 | Result for incubation with human plasma (immunoglobulin binding detection) [1]: + | Result for incubation with human IgG-Fc (immunoglobulin binding detection) (human IgG-Fc): +

06I: cellulose-bound 13-mer variant DCAWHIGELVWCT-(βA)(βA) (DCAWHIGELVWCT-{βAla-βAla-cellulose}; disulfide 2-12 (inferred); not fully specified (N-terminus); printed as DCAWHIGELVWCT-(βA)(βA); reading uncertain)
Result for incubation with serum albumin (immunoglobulin binding detection) (serum albumin): 0 | Result for incubation with human plasma (immunoglobulin binding detection) [1]: 0 | Result for incubation with human IgG-Fc (immunoglobulin binding detection) (human IgG-Fc): 0

07N: cellulose-bound 13-mer variant DCAWHLNELVWCT-(βA)(βA) (DCAWHLNELVWCT-{βAla-βAla-cellulose}; disulfide 2-12 (inferred); not fully specified (N-terminus); printed as DCAWHLNELVWCT-(βA)(βA); reading uncertain)
Result for incubation with serum albumin (immunoglobulin binding detection) (serum albumin): 0 | Result for incubation with human plasma (immunoglobulin binding detection) [1]: 0 | Result for incubation with human IgG-Fc (immunoglobulin binding detection) (human IgG-Fc): 0

09S: cellulose-bound 13-mer variant DCAWHLGESVWCT-(βA)(βA) (DCAWHLGESVWCT-{βAla-βAla-cellulose}; disulfide 2-12 (inferred); reading uncertain; also: printed as DCAWHLGESVWCT-(βA)(βA))
Result for incubation with serum albumin (immunoglobulin binding detection) (serum albumin): 0 | Result for incubation with human plasma (immunoglobulin binding detection) [1]: 0 | Result for incubation with human IgG-Fc (immunoglobulin binding detection) (human IgG-Fc): 0

03S: cellulose-bound 13-mer variant DCSWHLGELVWCT-(βA)(βA) (DCSWHLGELVWCT-{βAla-βAla-cellulose}; disulfide 2-12 (inferred); reading uncertain; also: printed as DCSWHLGELVWCT-(βA)(βA))
Result for incubation with serum albumin (immunoglobulin binding detection) (serum albumin): 0 | Result for incubation with human plasma (immunoglobulin binding detection) [1]: + | Result for incubation with human IgG-Fc (immunoglobulin binding detection) (human IgG-Fc): +

03Q: cellulose-bound 13-mer variant DCQWHLGELVWCT-(βA)(βA) (DCQWHLGELVWCT-{βAla-βAla-cellulose}; disulfide 2-12 (inferred); reading uncertain; also: printed as DCQWHLGELVWCT-(βA)(βA))
Result for incubation with serum albumin (immunoglobulin binding detection) (serum albumin): 0 | Result for incubation with human plasma (immunoglobulin binding detection) [1]: 0 | Result for incubation with human IgG-Fc (immunoglobulin binding detection) (human IgG-Fc): +

11M: cellulose-bound 13-mer variant DCAWHLGELVMCT-(βA)(βA)
Result for incubation with serum albumin (immunoglobulin binding detection) (serum albumin): 0 | Result for incubation with human plasma (immunoglobulin binding detection) [1]: 0 | Result for incubation with human IgG-Fc (immunoglobulin binding detection) (human IgG-Fc): 0

03W: cellulose-bound 13-mer variant DCWWHLGELVWCT-(βA)(βA) (DCWWHLGELVWCT-{βAla-βAla-cellulose}; disulfide 2-12 (inferred); reading uncertain; also: printed as DCWWHLGELVWCT-(βA)(βA))
Result for incubation with serum albumin (immunoglobulin binding detection) (serum albumin): 0 | Result for incubation with human plasma (immunoglobulin binding detection) [1]: 0 | Result for incubation with human IgG-Fc (immunoglobulin binding detection) (human IgG-Fc): 0

06P: cellulose-bound 13-mer variant DCAWHPGELVWCT-(βA)(βA) (DCAWHPGELVWCT-{βAla-βAla-cellulose}; disulfide 2-12 (inferred); not fully specified (N-terminus); printed as DCAWHPGELVWCT-(βA)(βA); reading uncertain)
Result for incubation with serum albumin (immunoglobulin binding detection) (serum albumin): 0 | Result for incubation with human plasma (immunoglobulin binding detection) [1]: 0 | Result for incubation with human IgG-Fc (immunoglobulin binding detection) (human IgG-Fc): 0

09I: cellulose-bound 13-mer variant DCAWHLGEIVWCT-(βA)(βA) (DCAWHLGEIVWCT-{βAla-βAla-cellulose}; disulfide 2-12 (inferred); reading uncertain; also: printed as DCAWHLGEIVWCT-(βA)(βA))
Result for incubation with serum albumin (immunoglobulin binding detection) (serum albumin): 0 | Result for incubation with human plasma (immunoglobulin binding detection) [1]: 0 | Result for incubation with human IgG-Fc (immunoglobulin binding detection) (human IgG-Fc): 0

01F: cellulose-bound 13-mer variant FCAWHLGELVWCT-(βA)(βA) (FCAWHLGELVWCT-{βAla-βAla-cellulose}; disulfide 2-12 (inferred); reading uncertain; also: printed as FCAWHLGELVWCT-(βA)(βA))
Result for incubation with serum albumin (immunoglobulin binding detection) (serum albumin): 0 | Result for incubation with human plasma (immunoglobulin binding detection) [1]: 0 | Result for incubation with human IgG-Fc (immunoglobulin binding detection) (human IgG-Fc): 0

10S: cellulose-bound 13-mer variant DCAWHLGELSWCT-(βA)(βA) (DCAWHLGELSWCT-{βAla-βAla-cellulose}; disulfide 2-12 (inferred); reading uncertain; also: printed as DCAWHLGELSWCT-(βA)(βA))
Result for incubation with serum albumin (immunoglobulin binding detection) (serum albumin): 0 | Result for incubation with human plasma (immunoglobulin binding detection) [1]: 0 | Result for incubation with human IgG-Fc (immunoglobulin binding detection) (human IgG-Fc): 0

04H: cellulose-bound 13-mer variant DCAHHLGELVWCT-(βA)(βA) (DCAHHLGELVWCT[βAla][βAla]; disulfide 2-12 (inferred); also: cellulose-bound)
Result for incubation with serum albumin (immunoglobulin binding detection) (serum albumin): 0 | Result for incubation with human plasma (immunoglobulin binding detection) [1]: + | Result for incubation with human IgG-Fc (immunoglobulin binding detection) (human IgG-Fc): +

11K: cellulose-bound 13-mer variant DCAWHLGELVKCT-(βA)(βA)
Result for incubation with serum albumin (immunoglobulin binding detection) (serum albumin): 0 | Result for incubation with human plasma (immunoglobulin binding detection) [1]: 0 | Result for incubation with human IgG-Fc (immunoglobulin binding detection) (human IgG-Fc): +
